The structures appear in SMILES notation.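 Growth conditions: 96-well plates. Treatment: test compound, 48 hours, 5 concentrations. Analysis: linear interpolation between bracketing concentrations; unreached endpoints set to highest concentration. GI50: concentration for 50% inhibition of growth.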 Active and inactive are the calls of the source. Cut-off read from the data, not from the text of the source: active = GI50 up to about 1.1 µM and inactive = higher.

Common to all, as to assay: NCI anticancer screen, dose series, 48 h
In assay [1] the test system is DMS-273.
Assay [2] relates to U-251.
For assay [3], the system named is OVCAR-3.
The test system of assay [4] is SK-MEL-28.
For assay [5], the system named is CAKI-1.
The subject of assay [6] is M19-MEL.
The subject of assay [7] is IGROV-1.
The subject of assay [8] is M14.
Assay [9] concerns ACHN.
Assay [10] deals with RPMI-8226.
Assay [11] deals with HL-60.
The test system of assay [12] is SNB-78.
The subject of assay [13] is SF-539.
Assay [14] relates to UACC-257.
Assay [15] deals with DMS-114.
Assay [16] deals with KM12.
The subject of assay [17] is HT-29.
For assay [18], the system named is SR.
Assay [19] deals with MOLT-4.

As to `CN(C)/C=N\c1cc[nH]c(=O)n1`, the GI50 in assay [1], in assay [2], in [3], in [4], in assay [5] and in assay [6] was > 100 µM (inactive) in each case. For the same compound, the GI50 in assay [7], in [8], in assay [9], in [10], in [11] and in assay [12] was > 100 µM (inactive) each time. Further, the GI50 in assay [13], in [14], in assay [15], in assay [16] and in [17] was > 100 µM (inactive) throughout.
With `CC(=O)OCC1OC(Sc2ccccn2)C=CC1OC(C)=O` (stereo unspecified), the GI50 in assay [1], in [2], in assay [3], in assay [4], in assay [6] and in [7] was > 100 µM (inactive) throughout. The GI50 in [8], in assay [9], in assay [11], in assay [18], in assay [13] and in assay [19] was > 100 µM (inactive) in each case. Further, the GI50 in assay [14], in assay [15], in [16] and in [17] was > 100 µM (inactive) each time.
As to `CCCCCCC1CCC2CCCC(C)N12` (stereo unspecified), the GI50 in assay [1] was 27.4 µM (inactive); in assay [2] it was 10.5 µM (inactive); in [3] it was > 100 µM (inactive); in [4] it was 53.6 µM (inactive); in [5], > 100 µM (inactive); in [6], 27.7 µM (inactive). The GI50 is 25.3 µM (inactive) in [8]; 68.1 µM (inactive) in assay [9]; 22.9 µM (inactive) in assay [10]; 17.8 µM (inactive) in [11]; 23.2 µM (inactive) in assay [18]; 76 µM (inactive) in assay [13]. The GI50 in assay [19] was 18.3 µM (inactive); in [14], 37.9 µM (inactive); in assay [15], 37 µM (inactive); in [16], 30.6 µM (inactive); in assay [17], > 10 µM (inactive).
`CC[n+]1c(/C=C/c2cc(C(=O)OC)n3c2sc2ccccc23)sc2ccccc21`: the GI50 was 17.6 µM (inactive) in assay [1]; 20.3 µM (inactive) in [3]; 18.9 µM (inactive) in assay [6]; 16.9 µM (inactive) in [7]; 18.8 µM (inactive) in assay [8]; 19.1 µM (inactive) in assay [9]. The GI50 was > 10 µM (inactive) in [10]; 13.9 µM (inactive) in [11]; > 10 µM (inactive) in assay [18]; 18.2 µM (inactive) in [13]; 11.4 µM (inactive) in [19]; 17.3 µM (inactive) in assay [14]. For the same compound, the GI50 in assay [15] is 19.2 µM (inactive); in assay [16] it was 14.7 µM (inactive); in assay [17], 16.6 µM (inactive).
As for `C=CC1=C(C)/C(=C/C2=NC(=C\c3[nH]c(CC4NC(=O)C(C)/C4=C\C)c(C)c3CCC(=O)O)/C(CC(=O)O)=C2C)NC1=O` (stereo unspecified), the GI50 in assay [2], in assay [3], in assay [4], in assay [5], in assay [6] and in assay [7] was > 100 µM (inactive) each time. The GI50 in [8], in [9], in assay [11], in [12], in assay [18] and in assay [13] was > 100 µM (inactive) each time. Further, the GI50 in assay [19], in assay [14], in assay [15], in assay [16] and in assay [17] was > 100 µM (inactive) in each case.
As for `Cc1ccc(/N=N/C2S/C(=C(\C#N)c3nc4ccccc4[nH]3)N(c3ccccc3)C2=O)cc1` (stereo unspecified), the GI50 is > 100 µM (inactive) in [1]; 57.9 µM (inactive) in assay [2]; > 100 µM (inactive) in assay [3]; > 100 µM (inactive) in assay [4]; 67.1 µM (inactive) in assay [5]; > 100 µM (inactive) in assay [6]. Besides, the GI50 in assay [7] is 29.6 µM (inactive); in [8], 89.1 µM (inactive); in [9], 34.1 µM (inactive); in assay [11], > 100 µM (inactive); in assay [12], > 100 µM (inactive); in assay [13], 43.6 µM (inactive). The GI50 was 55 µM (inactive) in [14], 65.5 µM (inactive) in assay [15] and > 100 µM (inactive) in [17].
Consider `COC(=O)/C(=C/c1ccc(OC)cc1)C(C(=O)O)=C1CCCCC1`, for which the GI50 in [1], in [2], in [5], in assay [6], in assay [7] and in assay [8] was > 100 µM (inactive) each time. In addition, the GI50 in assay [9], in [10], in assay [11], in assay [12], in assay [18] and in assay [13] was > 100 µM (inactive) in each case. Moreover, the GI50 in assay [19], in [14], in [16] and in [17] was > 100 µM (inactive) throughout.
`O=C1C2ON3c4ccccc4C(=O)C3(c3ccccc3)C2C(=O)N1c1ccccc1` (stereo unspecified): the GI50 in [1], in assay [2], in [4], in [6], in [7] and in assay [8] was > 100 µM (inactive) each time. The GI50 in [9], in assay [10], in assay [11], in assay [12], in assay [18] and in assay [13] was > 100 µM (inactive) each time. Moreover, the GI50 in [19], in assay [14] and in assay [17] was > 100 µM (inactive) each time.
For `CN1C2(c3ccccc3)c3c(-c4ccccc4)sc(-c4ccccc4)c3C1(c1ccccc1)C1C(=O)N(c3ccccc3)C(=O)C12` (stereo unspecified), the GI50 in assay [1], in assay [2], in assay [3], in [4], in assay [5] and in assay [6] was > 100 µM (inactive) in each case. Moreover, the GI50 in [7], in assay [8], in [9], in assay [10], in [11] and in [12] was > 100 µM (inactive) throughout. Also, the GI50 in assay [13], in assay [14], in [15], in assay [16] and in assay [17] was > 100 µM (inactive) each time.
Consider `Brc1ccc(N2C[N+](c3ccc(Br)cc3)=NC(c3ccccc3)=N2)cc1.[O-][Cl+3]([O-])([O-])[O-]`, for which the GI50 in assay [1] was 50.1 µM (inactive); in [2], > 100 µM (inactive); in assay [4], > 100 µM (inactive); in assay [5] it was > 100 µM (inactive); in [6] it was > 100 µM (inactive); in assay [7], > 100 µM (inactive). The GI50 in assay [8] was 58.3 µM (inactive); in [9] it was 50.2 µM (inactive); in assay [10], 49.9 µM (inactive); in [11], 30.3 µM (inactive); in [12] it was > 100 µM (inactive); in assay [13], > 100 µM (inactive). Further, the GI50 in assay [19] was 43 µM (inactive); in assay [14], > 100 µM (inactive); in [15], 25.1 µM (inactive); in [16], > 100 µM (inactive); in assay [17] it was 36.7 µM (inactive).
For `CC(=O)O[C@H]1C(=O)[C@@]2(C)C(C(OC(=O)c3ccccc3)[C@]3(O)CC(OC(=O)C(O)C(NC(=O)c4ccc(C)cc4)c4ccccc4)C(C)=C1C3(C)C)[C@]1(OC(C)=O)CO[C@@H]1C[C@@H]2O` (stereo partly specified), the GI50 in assay [1] is < 0.0025 µM (active); in [2] it was 0.00315 µM (active); in [3], < 0.0025 µM (active); in assay [5], 0.224 µM (active); in assay [6], < 0.0025 µM (active); in [7], < 0.0025 µM (active). Further, the GI50 in [8] is < 0.0025 µM (active); in assay [9], 0.112 µM (active); in assay [10] it was < 0.0025 µM (active); in assay [11], < 0.0025 µM (active); in assay [12], 4.02 µM (inactive); in assay [13], < 0.0025 µM (active). In addition, the GI50 is < 0.0025 µM (active) in assay [19]; 0.00708 µM (active) in [14]; < 0.0025 µM (active) in assay [15]; < 0.0025 µM (active) in assay [16]; < 0.0025 µM (active) in assay [17].
With `O=c1ccccc2cccc(O)c12`, the GI50 in [1], in [2], in assay [3], in assay [4], in assay [5] and in [6] was > 100 µM (inactive) each time. The GI50 in [7], in assay [8], in assay [9], in assay [10], in assay [11] and in assay [12] was > 100 µM (inactive) in each case. Besides, the GI50 in [13], in assay [19], in assay [14], in assay [15] and in assay [17] was > 100 µM (inactive) each time.

For the origin of these results see ChEMBL document CHEMBL1201862, “PubChem BioAssay data set” (2004).
